Drawing on PubChem BioAssay AID1259411 (Chemical Carcinogenesis Research Information System (CCRIS), 2018), this text covers carcinogen call for nine compounds.

The source made the active and inactive calls. How the calls were made is not given here.

The subject of this data set is rodent carcinogenicity bioassays, tumor incidence. Kind of data set: CCRIS carcinogenicity studies. The method, boiled down:
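Archive of carcinogenicity, mutagenicity, tumor promotion and tumor inhibition results drawn from journals, NCI reports and other sources, expert-reviewed; covers 1985-2011 and is no longer updated.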

Take `N#Cc1c(Cl)c(Cl)c(Cl)c(C#N)c1Cl`: the carcinogen call is “inactive; negative” (Species: MOUSE, Strain/Sex: B6C3F1/FEMALE, Route: ORAL, Dose: 0, 3000, 6000 PPM IN DIET, TWA, Dose: 0, 3000, 6000 PPM IN DIET, TWA); “inactive; negative” (Species: MOUSE, Strain/Sex: B6C3F1/MALE, Route: ORAL, Dose: 0, 2688, 5375 PPM IN DIET, TWA, Dose: 0, 2688, 5375 PPM IN DIET, TWA); “active; positive (ca dpr describes as possible adverse effect; study details not given i” (Species: Mouse, Strain/Sex: CD-1/Female (60 per group), Route: Oral, Dose: 0, 750, 1,500, 3,000 ppm in diet for 2 yr, Dose: 0, 750, 1,500, 3,000 ppm in diet for 2 yr, Tumor Site: Type of Lesion: Forestomach: Squamous cell papillomas or carcinomas (0, 2, 6, 5), No dose response); “active; positive without dose response (ca dpr describes as possible adverse effect); st” (Species: Mouse, Strain/Sex: CD-1/Male (60 per group), Route: Oral, Dose: 0, 750, 1,500, 3,000 ppm in diet for 2 yr, Dose: 0, 750, 1,500, 3,000 ppm in diet for 2 yr, Tumor Site: Type of Lesion: Kidney: renal tubular adenoma or carcinoma (0, 6, 4, 4). Forestomach: Squamous cell papillomas or carcinomas (0, 2, 5, 2); “active; positive” (Species: RAT, Strain/Sex: OSBORNE-MENDEL/FEMALE, Route: ORAL, Dose: 0, 5063, 10126 PPM IN DIET, TWA, Dose: 0, 5063, 10126 PPM IN DIET, TWA, Tumor Site: Type of Lesion: KIDNEY: ADENOMA OR CARCINOMA (NOS) OR TUBULAR CELL ADENOMA OR TUBULAR CELL ADENOCARCINOMA); “active; positive” (Species: RAT, Strain/Sex: OSBORNE-MENDEL/MALE, Route: ORAL, Dose: 0, 5063, 10126 PPM IN DIET, TWA, Dose: 0, 5063, 10126 PPM IN DIET, TWA, Tumor Site: Type of Lesion: KIDNEY: CARCINOMA (NOS) OR TUBULAR CELL ADENOMA OR TUBULAR CELL ADENOCARCINOMA OR ADENOCARCINOMA OR PAPILLARY ADENOMA). The carcinogen call reads like this: (Species: Rat, Strain/Sex: Fischer 344/Female (55 per group), Route: Oral, Dose: 0, 1.8, 3.8, 15.2, 183 mg/kg/day in diet for 125 wks, Dose: 0, 1.8, 3.8, 15.2, 183 mg/kg/day in diet for 125 wks, Tumor Site: Type of Lesion: Kidney: Renal tubular adenomas and carcinomas (0, 0, 0, 0, 32 in 53-55 animals). Forestomach: Papillomas and carcinomas) “active; positive (study details not given in source)”; (Species: Rat, Strain/Sex: Fischer 344/Male (55 per group), Route: Oral, Dose: 0, 1.8, 3.8, 15.2, 183 mg/kg/day in diet for 99 wks (high dose) or 111 wk (all others), Dose: 0, 1.8, 3.8, 15.2, 183 mg/kg/day in diet for 99 wks (high dose) or 111 wk (all others), Tumor Site: Type of Lesion: Kidney: Renal tubular adenomas and carcinomas (1, 1, 1, 4, 23 in 53-55 animals) Forestomach: Papillomas and carcinomas () “active; positive (study details not given in source)”; (Species: Rat, Strain/Sex: Sprague-Dawley/Female (50 per group), Route: Oral, Dose: 0, 15, 60, 240, 1,200 mg/kg/day in diet for 2 yr, Dose: 0, 15, 60, 240, 1,200 mg/kg/day in diet for 2 yr, Tumor Site: Type of Lesion: Forestomach: Papillomas or carcinomas (0, 0, 0, 2, 1), Not significant) “inactive; negative (ca dpr describes as possible adverse effect; study details not given i”; (Species: Rat, Strain/Sex: Sprague-Dawley/Male (50 per group), Route: Oral, Dose: 0, 15, 60, 240, 1,200 mg/kg/day in diet for 2 yr, Dose: 0, 15, 60, 240, 1,200 mg/kg/day in diet for 2 yr, Tumor Site: Type of Lesion: Forestomach: Papillomas or carcinomas (0, 0, 0, 0, 3), Borderline significance) “active; positive at highest dose (ca dpr describes as possible adverse effect; study det”.
For the compound `CCC(C)OC(OC(C)CC)C(=O)c1ccccc1` (stereo not given), the carcinogen call (Species: MOUSE, Strain/Sex: C3H/HEJ/MALE, Route: DERMAL, Dose: 0, 22.4 MG UNDILUTED 3/WK FOR LIFESPAN (STUDY DURATION: LIFESPAN)) was “inactive; negative”.
Consider `O=[N+]([O-])c1cc(O)c2ccc3cccc4ccc1c2c34`, for which the carcinogen call (Species: RAT, Strain/Sex: STRAIN-CD/FEMALE, Route: SUBCUTANEOUS, Dose: 0, 63 UMOL (TOTAL DOSE) ADMINISTERED OVER 8 WK BEGINNING WITHIN 24 HR OF BIRTH (STUDY DURATION: 86 WK)) was “inactive; negative”.
Turning to `Nc1ccccc1N`, the carcinogen call (Species: MOUSE, Route: ORAL, Tumor Site: Type of Lesion: LIVER) is “active; positive” and the carcinogen call (Species: RAT, Route: ORAL, Tumor Site: Type of Lesion: LIVER) is “active; positive”.
With `CC(N)Cc1ccccc1` (stereo not given), the carcinogen call runs as follows: (Species: MOUSE, Strain/Sex: B6C3F1/FEMALE, Route: ORAL, Dose: 0, 20, 100 PPM IN DIET FOR 103 WK (STUDY DURATION: 105 WK), Dose: 0, 20, 100 PPM IN DIET FOR 103 WK (STUDY DURATION: 105 WK)) “inactive; negative”; (Species: MOUSE, Strain/Sex: B6C3F1/MALE, Route: ORAL, Dose: 0, 20, 100 PPM IN DIET FOR 103 WK (STUDY DURATION: 105 WK), Dose: 0, 20, 100 PPM IN DIET FOR 103 WK (STUDY DURATION: 105 WK)) “inactive; negative”; (Species: RAT, Strain/Sex: F344/FEMALE, Route: ORAL, Dose: 0, 20, 100 PPM IN DIET FOR 103 WK (STUDY DURATION: 105 WK), Dose: 0, 20, 100 PPM IN DIET FOR 103 WK (STUDY DURATION: 105 WK)) “inactive; negative”; (Species: RAT, Strain/Sex: F344/MALE, Route: ORAL, Dose: 0, 20, 100 PPM IN DIET FOR 103 WK (STUDY DURATION: 105 WK), Dose: 0, 20, 100 PPM IN DIET FOR 103 WK (STUDY DURATION: 105 WK)) “inactive; negative”.
Consider `C=CC(=O)O`, for which the carcinogen call reads like this: (Species: MOUSE, Strain/Sex: C3H/MALE, Route: DERMAL, Dose: 0, 0.20 MG IN 25 µL ACETONE 3/WK FOR LIFESPAN (STUDY DURATION: LIFESPAN)) “inactive; negative”; (Species: RAT, Strain/Sex: WISTAR/FEMALE, Route: ORAL, Dose: 0, 120, 400, 1200 PPM IN DRINKING WATER FOR 28 MO (STUDY DURATION: 28 MO), Dose: 0, 120, 400, 1200 PPM IN DRINKING WATER FOR 28 MO (STUDY DURATION: 28 MO)) “inactive; negative”; (Species: RAT, Strain/Sex: WISTAR/MALE, Route: ORAL, Dose: 0, 120, 400, 1200 PPM IN DRINKING WATER FOR 26 MO (STUDY DURATION: 26 MO), Dose: 0, 120, 400, 1200 PPM IN DRINKING WATER FOR 26 MO (STUDY DURATION: 26 MO)) “inactive; negative”.
For `Cn1c(=O)c2[nH]cnc2n(C)c1=O`, the carcinogen call (Species: MOUSE, Strain/Sex: B6C3F1/FEMALE, Route: GAVAGE, Dose: 0, 7.5, 25, 75 MG/KG BW IN CORN OIL 5 D/WK FOR 726 D (STUDY DURATION: 2 YR), Dose: 0, 7.5, 25, 75 MG/KG BW IN CORN OIL 5 D/WK FOR 726 D (STUDY DURATION: 2 YR)) was “inactive; negative”; the carcinogen call (Species: MOUSE, Strain/Sex: B6C3F1/MALE, Route: GAVAGE, Dose: 0, 15, 50, 150 MG/KG BW IN CORN OIL 5 D/WK FOR 726 D (STUDY DURATION: 2 YR), Dose: 0, 15, 50, 150 MG/KG BW IN CORN OIL 5 D/WK FOR 726 D (STUDY DURATION: 2 YR)) was “inactive; negative”; the carcinogen call (Species: RAT, Strain/Sex: F344/FEMALE, Route: GAVAGE, Dose: 0, 7.5, 25, 75 MG/KG BW IN CORN OIL 5 D/WK FOR 729 D (STUDY DURATION: 2 YR), Dose: 0, 7.5, 25, 75 MG/KG BW IN CORN OIL 5 D/WK FOR 729 D (STUDY DURATION: 2 YR)) is “inactive; negative”; the carcinogen call (Species: RAT, Strain/Sex: F344/MALE, Route: GAVAGE, Dose: 0, 7.5, 25, 75 MG/KG BW IN CORN OIL 5 D/WK FOR 729 D (STUDY DURATION: 2 YR), Dose: 0, 7.5, 25, 75 MG/KG BW IN CORN OIL 5 D/WK FOR 729 D (STUDY DURATION: 2 YR)) is “inactive; negative”.
For `CC(=O)Nc1ccc(-c2ccc(NC(C)=O)cc2)cc1`, the carcinogen call is, setting by setting: (Species: RAT, Route: INTRAPERITONEAL, Tumor Site: Type of Lesion: EAR (CANAL), MAMMARY GLAND, INTEGUMENTARY SYSTEM (SKIN), Tumor Site: Type of Lesion: EAR (CANAL), MAMMARY GLAND, INTEGUMENTARY SYSTEM (SKIN)) “active; positive”; (Species: RAT, Route: ORAL, Tumor Site: Type of Lesion: EAR (CANAL)) “active; positive”; (Species: RAT, Route: SUBCUTANEOUS, Tumor Site: Type of Lesion: MAMMARY GLAND, LIVER, EAR (ZYMBAL GLAND), Tumor Site: Type of Lesion: MAMMARY GLAND, LIVER, EAR (ZYMBAL GLAND)) “active; positive”.
As to `C[CH2][Pb]([CH2]C)([CH2]C)[CH2]C`, the carcinogen call is, setting by setting: (Species: MOUSE, Strain/Sex: ICR/FEMALE, Route: SUBCUTANEOUS, Dose: 0, 0.1 MG IN TRICAPRYLIN AT DAYS 1 AND 7 OF AGE AND 0, 0.2 MG AT DAYS 14 AND 21 OF AGE FOR A TOTAL DOSE OF 0, 0.6 MG (ST, Dose: 0, 0.1 MG IN TRICAPRYLIN AT DAYS 1 AND 7 OF AGE AND 0, 0.2 MG AT DAYS 14 AND 21 OF AGE FOR A TOTAL DOSE OF 0, 0.6 MG (ST, Tumor Site: Type of Lesion: HEMATOPOIETIC SYSTEM: LYMPHOMA) “active; positive”; (Species: MOUSE, Strain/Sex: ICR/MALE, Route: SUBCUTANEOUS, Dose: 0, 0.1 MG IN TRICAPRYLIN ON DAYS 1 AND 7 OF AGE AND 0, 0.2 MG ON DAYS 14 AND 21 OF AGE FOR A TOTAL DOSE OF 0, 0.6 MG (ST, Dose: 0, 0.1 MG IN TRICAPRYLIN ON DAYS 1 AND 7 OF AGE AND 0, 0.2 MG ON DAYS 14 AND 21 OF AGE FOR A TOTAL DOSE OF 0, 0.6 MG (ST) “inactive; negative”.
